In BindingDB's records for doi:10.1021/acs.jmedchem.3c01130 (University of Toledo College of Medicine and Life Sciences, 2023) one finds IC50 data, which are given here for 1 molecule.

In this experiment the target is Transcription factor Sp1 (Homo sapiens, UniProt P08047). Kind of experiment: Inhibition of human SP1 transfected in PC-3 cells by renilla luciferase reporter gene assay.

Broadly, the IC50 is the point on the concentration scale where inhibition reaches its midpoint. Low readings indicate higher potency, high ones lower potency.

Sequence of Transcription factor Sp1 (P08047 whole entry): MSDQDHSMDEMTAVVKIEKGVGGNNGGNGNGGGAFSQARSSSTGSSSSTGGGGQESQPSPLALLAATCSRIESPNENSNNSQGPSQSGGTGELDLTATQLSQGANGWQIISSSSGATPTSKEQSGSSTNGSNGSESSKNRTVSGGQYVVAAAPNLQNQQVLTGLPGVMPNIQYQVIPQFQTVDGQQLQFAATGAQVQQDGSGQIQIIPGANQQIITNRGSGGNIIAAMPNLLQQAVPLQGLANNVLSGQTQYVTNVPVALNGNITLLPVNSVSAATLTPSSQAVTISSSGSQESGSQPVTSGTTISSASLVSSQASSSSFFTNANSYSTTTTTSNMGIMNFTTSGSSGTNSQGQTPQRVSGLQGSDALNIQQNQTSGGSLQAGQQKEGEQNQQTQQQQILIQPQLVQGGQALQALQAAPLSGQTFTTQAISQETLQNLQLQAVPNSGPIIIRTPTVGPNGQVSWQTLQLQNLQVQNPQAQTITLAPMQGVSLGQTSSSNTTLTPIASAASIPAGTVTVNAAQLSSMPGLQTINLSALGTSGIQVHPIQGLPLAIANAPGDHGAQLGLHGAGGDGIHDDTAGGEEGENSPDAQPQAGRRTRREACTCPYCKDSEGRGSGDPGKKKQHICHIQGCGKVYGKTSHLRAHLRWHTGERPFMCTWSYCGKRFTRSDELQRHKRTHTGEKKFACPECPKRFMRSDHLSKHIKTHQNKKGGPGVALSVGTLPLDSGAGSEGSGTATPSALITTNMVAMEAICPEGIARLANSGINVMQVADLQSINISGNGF

For `COCC[n+]1c2c(n(Cc3cnccn3)c1C)C(=O)c1ccccc1C2=O` [Sepantronium Bromide], the IC50 was found to be 8 nM.
